From PubChem BioAssay AID1197 (NMMLSC, 2008)
The source made the active and inactive calls. The rule behind the calls is not given here.

experiment: LNCaP cell killing by flow cytometry event count, dose response, cytotoxicity control for prostate cell differentiation activator project (AID 1197); conditions: LNCaP cell loss, flow cytometry event count, 4 d; at 30 µM (top of the series)

Row | SMILES | event count (lower = more killing)
1 | CCN1CCCC1CNC(=O)c1cc2c(-c3ccc(Cl)cc3)nn(C)c2s1 (centres undefined) | 27.8% (inactive)
2 | COc1ccc(Cc2nc(-c3ccc(-n4cccc4)cc3)no2)cc1OC | 104% (inactive)
3 | CN(C)c1ccc(CNC2CC(C)(C)NC(C)(C)C2)cc1 | 284% (inactive)
4 | Cc1ccc(C)c(N2CCN(CCCNC(=O)Cn3cc4c(n3)CCCCC4)CC2)c1 | 71.8% (inactive)
5 | Cc1nc2ncnn2c(C)c1CCC(=O)NCCCN1CCN(c2cccc(Cl)c2)CC1 | 374% (inactive)
6 | COc1ccc(-c2ccc(-c3noc(-c4ccccc4)n3)c(OC)n2)cc1 | 153% (inactive)
7 | COc1ccc(CCn2c(=N)c(C(=O)NCc3ccco3)cc3c(=O)n4ccccc4nc32)cc1 | 37.8% (inactive)
8 | CN(CC(O)COc1ccc(OCC(O)CN(C)C2CCCCC2)cc1)C1CCCCC1 (centres undefined) | 126% (inactive)
9 | Cc1ccccc1-c1nc(CN2CCC(C(=O)NCc3cccnc3)CC2)c(C)o1 | 295% (inactive)
10 | Cn1c(C(=O)NCCCN2CCN(c3cccc(Cl)c3)CC2)cc2c(=O)n(C)c3ccccc3c21 | 137% (inactive)
11 | COC(=O)c1cc(-c2ccccc2)sc1NC(=O)c1cc(C)on1 | 394% (inactive)
12 | Nc1ccc(-n2ccnc2)cc1 | 282% (inactive)
13 | CCn1c(=O)cc(SCC(=O)NCCN2CCN(Cc3ccccc3)CC2)c2ccccc21 | 306% (inactive)
14 | CCN1CCN(C(c2cccs2)C(C)NS(=O)(=O)c2ccc(Br)cc2)CC1 (centres undefined) | 282% (inactive)
15 | Cc1ccc(Cl)cc1N1CCN(C(=O)c2cc3c(=O)n(C)c4ccccc4c3n2C)CC1 | 26.8% (inactive)
16 | CCCc1cc(-c2n[nH]c(C)c2-c2ccc(C(=O)OCC)o2)c(O)cc1O | 98.2% (inactive)
17 | COc1ccc(N2CCN(CCCNC(=O)c3cc4sccc4n3C)CC2)cc1 | 282% (inactive)
18 | COc1cc2nc(N3CCN(C(=O)C4COc5ccccc5O4)CC3)nc(N)c2cc1OC (centres undefined) | 104% (inactive)
19 | Cc1oc(-c2ccc(Cl)cc2)nc1CN1CCC(C(=O)N2CCN(Cc3ccccc3)CC2)CC1 | 91.8% (inactive)
20 | CCn1c(=N)n(CC(O)COc2cccc(C)c2)c2ccccc21 (centres undefined) | 275% (inactive)
21 | Cc1ccc(Nc2cc(=O)n(C3CCCCC3)c(=O)[nH]2)cc1C | 55.5% (inactive)
22 | Cc1ccccc1-c1nc(CN2CCC(C(=O)NCCCN3CCOCC3)CC2)c(C)o1 | 109% (inactive)

Row | SMILES | event count (lower = more killing)
23 | CCOC(=O)c1c(C)n(C)c2ccc(OCC(O)CNC(CC)CO)cc12 (centres undefined) | 115% (inactive)
24 | CCn1c(=O)cc(SCC(=O)NCCCN2CCN(c3ccccc3F)CC2)c2ccccc21 | 210% (inactive)
25 | O=C(CCN1C(=O)COc2ccccc21)NCCCN1CCN(c2ccc(F)cc2)CC1 | 279% (inactive)
26 | Cc1cc(N2CCN(C)CC2)nc2ccc(NC(=O)c3ccc4c(c3)OCO4)cc12 | 80.5% (inactive)
27 | Cc1ccc2c(c1)-c1c(cnn1CC(=O)Nc1ccccc1N1CCN(C)CC1)CO2 | 163% (inactive)
28 | CC(C)(C)c1ccc(C(O)CCCN2CCC(C(O)(c3ccccc3)c3ccccc3)CC2)cc1 (centres undefined) | 23.5% (inactive)
29 | CCN1CCN(c2cc(C)c3cc(NC(=O)c4ccc(Br)o4)ccc3n2)CC1 | 55.2% (inactive)
30 | CCOC(=O)c1ccccc1NC(=O)Cn1c(-c2nonc2N)nc2ccccc21 | 116% (inactive)
31 | Cc1ccc(CNc2nc3ccccc3n3nnnc23)cc1 | 128% (inactive)
32 | C[C@H]1CCC/C=C/C2C[C@H](O)CC2[C@H](O)/C=C/C(=O)O1 (some centres undefined) | 12.8% (inactive)
33 | Cc1ccccc1-c1nc(CN2CCC(C(=O)NCCCN3CCCC3)CC2)c(C)o1 | 76.5% (inactive)
34 | O=c1cc(-c2ccccc2)[nH]c2ccccc12 | 83.8% (inactive)
35 | Cn1c(=O)cc(SCC(=O)NCCCN2CCN(c3ccccc3F)CC2)c2ccccc21 | 258% (inactive)
36 | CCOc1cccc2cc(-c3cn4cc(C)ccc4n3)c(=O)oc12 | 76.2% (inactive)
37 | CN(C)CCCN1c2ccccc2CCc2ccc(Cl)cc21 | 32.2% (inactive)
38 | Cc1ccccc1-c1nc(CN2CCCC(C(=O)NCCCN3CCOCC3)C2)c(C)o1 (centres undefined) | 187% (inactive)
39 | CCN(CC)CCNC(=O)c1cc2c(-c3ccc(Cl)cc3)nn(C)c2s1 | 140% (inactive)
40 | Clc1ccc(COC(Cn2ccnc2)c2ccc(Cl)cc2Cl)cc1 (centres undefined) | 223% (inactive)
41 | O=C(NCCCN1CCN(c2ccc(F)cc2)CC1)c1cccc(N2CCCC2=O)c1 | 191% (inactive)
42 | O=S1(=O)C=C(Sc2nc3ccccc3s2)c2ccccc21 | 150% (inactive)
43 | CCN(CC)CCNC(=O)c1ccc(N2CCCCC2)c(NS(=O)(=O)c2ccc(C)cc2)c1 | 70.8% (inactive)
44 | CN(CCNC(=O)C1CC(=O)N(c2ccc(F)c(Cl)c2)C1)Cc1ccccc1 (centres undefined) | 343% (inactive)
